≈ marks a conversion by molar mass, not a printed value.
What was measured:
Moraxella catarrhalis = test: MIC against Moraxella catarrhalis; format: cell-based; conditions: N 21
Neisseria gonorrhoeae = test: MIC against Neisseria gonorrhoeae; format: cell-based; conditions: N 34
CA-MRSA = test: MIC against CA-MRSA; format: cell-based, Staphylococcus aureus; conditions: N 30
TNFα = test: LPS-induced TNFα production in PMA-differentiated U937 cells (ELISA); format: cell-based, human
Protocol: EXAMPLE. […] Cells. The human monocytic cell line U937 was obtained from the American Type Culture Collection (ATCC, Rockville, Md.). PBMCs from COPD patients were obtained from Brompton hospital and separated by AccuSPIN (Sigma-Aldrich). […] U937 cells were differentiated into adherent macrophage-like morphology by exposure to PMA (50 ng/ml) for 48 h in complete growth medium. Cell viability was assessed microscopically by trypan blue staining. Cell toxicity was determined by MTT assay as needed. This study was approved by the ethics committee of the Royal Brompton Hospitals, and all subjects gave written informed consent. Cytokine ELISA. TNFα and IL-8 concentrations in the supernatant of cell cultures were determined by sandwich ELISA according to the manufacturer's instructions (R&D Systems Europe, Abingdon, UK). Statistical analysis. The results were expressed as the mean±SEM. Comparisons of data in two groups were performed using the Student's t test or the Wilcoxon signed rank test. Multiple comparisons were made by one-way ANOVA with post hoc test (Dunnett's) as appropriate. The difference was considered significant at p<0.05. […] Anti-inflammatory effects of solithromycin in U937 cells.

## CC[C@H]1OC(=O)[C@@](C)(F)C(=O)[C@H](C)[C@@H](O[C@@H]2O[C@H](C)C[C@H](N(C)C)[C@H]2O)[C@](C)(OC)C[C@@H](C)C(=O)[C@H](C)[C@H]2N(CCCCn3cc(-c4cccc(N)c4)nn3)C(=O)O[C@]12C [Solithromycin, solithromycin]
Moraxella catarrhalis
  MIC50: 0.12 µg/mL (≈ 0.142 µM)
  MIC90: 0.12 µg/mL (≈ 0.142 µM)
  MIC Range: ≤0.008 to 0.5 µg/mL
Neisseria gonorrhoeae
  MIC50: 0.06 µg/mL (≈ 0.071 µM)
  MIC90: 0.12 µg/mL (≈ 0.142 µM)
  MIC Range: 0.03 to 0.25 µg/mL
CA-MRSA
  MIC50: 0.12 µg/mL (≈ 0.142 µM)
  MIC90: 0.12 µg/mL (≈ 0.142 µM)
  MIC Range: 0.06 to 0.12 µg/mL
TNFα; LPS, PMA-differentiated U937 cells, read-out: IC50 on TNFα release
  IC50: 41.6 ± 1.9 µM
TNFα; solithromycin and telithromycin at 100 μM, clarithromycin at 333 μM
  inhibition of TNFα production (in words): significantly inhibited

— patent US20210137961A1, “Compositions and Methods for Treating Dry Eye Diseases” (priority 2017, published 2021)
